Data reported in article PMC7026418, “The kinase polypharmacology landscape of clinical PARP inhibitors” (Scientific Reports, 2020).
Where two headings read alike, the source gives them in different places.

Legend:
Experiment in all cases: biochemical
Parameters in all cases: DiscoveRx KINOMEscan active site-directed competition binding; percent of control kinase bound to immobilised ligand
[1] = biological target: CAMKK1 (Homo sapiens, UniProt Q8N5S9)
[2] = biological target: T1, PRKCI (Homo sapiens, UniProt P41743)
T1 sequence (P41743 1-596): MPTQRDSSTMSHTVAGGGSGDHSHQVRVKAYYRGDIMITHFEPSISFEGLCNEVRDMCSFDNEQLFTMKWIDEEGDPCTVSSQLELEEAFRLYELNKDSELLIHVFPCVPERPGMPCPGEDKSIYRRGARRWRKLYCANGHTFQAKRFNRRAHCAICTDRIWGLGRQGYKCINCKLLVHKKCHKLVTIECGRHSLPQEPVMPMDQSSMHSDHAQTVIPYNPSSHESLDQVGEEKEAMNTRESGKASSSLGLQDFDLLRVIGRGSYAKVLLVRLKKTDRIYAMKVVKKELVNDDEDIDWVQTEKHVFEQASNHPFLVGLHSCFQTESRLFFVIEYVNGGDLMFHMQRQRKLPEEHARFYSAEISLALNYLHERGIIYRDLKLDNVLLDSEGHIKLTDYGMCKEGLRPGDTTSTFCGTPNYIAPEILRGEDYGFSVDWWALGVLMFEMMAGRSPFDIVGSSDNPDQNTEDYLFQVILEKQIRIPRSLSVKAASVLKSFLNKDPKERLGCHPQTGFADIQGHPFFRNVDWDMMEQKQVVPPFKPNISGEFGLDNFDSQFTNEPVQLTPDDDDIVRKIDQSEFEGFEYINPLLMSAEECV

[3] = biological target: T2, JNK1 (Homo sapiens, UniProt P45983)
T2 construct: gene MAPK8

[4] = biological target: T3, DCAMKL1 (Homo sapiens, UniProt O15075)
T3 construct: gene DCLK1
T3 sequence (O15075 1-740): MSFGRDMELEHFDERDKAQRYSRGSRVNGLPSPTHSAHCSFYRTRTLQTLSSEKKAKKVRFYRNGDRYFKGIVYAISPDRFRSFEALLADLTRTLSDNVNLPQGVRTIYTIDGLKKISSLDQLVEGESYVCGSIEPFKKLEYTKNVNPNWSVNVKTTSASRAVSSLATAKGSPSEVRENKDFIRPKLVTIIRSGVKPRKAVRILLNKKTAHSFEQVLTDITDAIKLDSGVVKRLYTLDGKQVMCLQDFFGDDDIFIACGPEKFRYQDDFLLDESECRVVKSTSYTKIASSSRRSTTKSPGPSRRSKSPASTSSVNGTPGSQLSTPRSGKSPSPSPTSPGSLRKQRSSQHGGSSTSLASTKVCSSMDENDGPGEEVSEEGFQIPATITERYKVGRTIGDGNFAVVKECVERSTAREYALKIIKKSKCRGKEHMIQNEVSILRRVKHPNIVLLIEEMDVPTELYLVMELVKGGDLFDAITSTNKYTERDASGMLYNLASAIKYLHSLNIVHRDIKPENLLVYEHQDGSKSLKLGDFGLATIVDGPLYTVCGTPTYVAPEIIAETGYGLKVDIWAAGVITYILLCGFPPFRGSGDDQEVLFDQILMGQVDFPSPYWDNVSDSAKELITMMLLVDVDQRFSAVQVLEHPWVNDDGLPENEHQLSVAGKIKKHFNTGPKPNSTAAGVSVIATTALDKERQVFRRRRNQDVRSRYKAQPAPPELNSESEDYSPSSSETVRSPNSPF

[5] = read-out: Talazoparib (BMN 673) / %Ctrl @ 10000nM
[6] = read-out: Olaparib / %Ctrl @ 10000nM
[7] = read-out: Niraparib (MK-4827) / %Ctrl @ 10000nM
[8] = read-out: Rucaparib / %Ctrl @ 10000nM, binding competition, % of control

T2 sequence (P45983 whole entry): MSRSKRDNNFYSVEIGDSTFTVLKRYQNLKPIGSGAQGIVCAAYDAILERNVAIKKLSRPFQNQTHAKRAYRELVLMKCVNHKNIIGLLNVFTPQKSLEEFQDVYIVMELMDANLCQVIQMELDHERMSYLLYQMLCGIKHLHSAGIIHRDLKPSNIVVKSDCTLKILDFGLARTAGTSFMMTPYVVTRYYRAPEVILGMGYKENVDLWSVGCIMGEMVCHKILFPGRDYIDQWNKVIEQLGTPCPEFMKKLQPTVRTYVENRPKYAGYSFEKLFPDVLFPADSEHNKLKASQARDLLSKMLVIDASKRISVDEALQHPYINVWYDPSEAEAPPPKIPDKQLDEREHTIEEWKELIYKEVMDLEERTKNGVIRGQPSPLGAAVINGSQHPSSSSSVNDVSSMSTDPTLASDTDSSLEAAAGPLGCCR
CAMKK1, sequence (Q8N5S9 whole entry): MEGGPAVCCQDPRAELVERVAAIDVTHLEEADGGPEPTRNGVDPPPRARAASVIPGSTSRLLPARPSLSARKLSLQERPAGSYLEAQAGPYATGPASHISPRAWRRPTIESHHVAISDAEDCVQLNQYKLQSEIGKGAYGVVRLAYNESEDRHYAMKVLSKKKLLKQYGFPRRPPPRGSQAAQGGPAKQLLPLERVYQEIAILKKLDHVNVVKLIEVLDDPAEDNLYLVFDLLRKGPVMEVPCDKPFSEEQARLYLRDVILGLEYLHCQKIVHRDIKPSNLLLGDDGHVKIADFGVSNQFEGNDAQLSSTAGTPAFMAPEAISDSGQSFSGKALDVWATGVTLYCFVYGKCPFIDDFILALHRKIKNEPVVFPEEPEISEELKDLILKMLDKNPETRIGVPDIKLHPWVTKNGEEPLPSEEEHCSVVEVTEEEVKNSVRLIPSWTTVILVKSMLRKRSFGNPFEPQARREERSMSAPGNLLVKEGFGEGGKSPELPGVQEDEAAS

Question: For `Cn1ncnc1[C@H]1c2n[nH]c(=O)c3cc(F)cc(c23)N[C@@H]1c1ccc(F)cc1` [Talazoparib], which percent of control binding at 10 µM [1, 5] is on record?
Answer: The percent of control binding at 10 µM was 97%.

Question: What about the percent of control binding at 10 µM [2, 5] of the same molecule?
Answer: Its percent of control binding at 10 µM is 78%.

Question: And the percent of control binding at 10 µM [3, 5]?
Answer: Its percent of control binding at 10 µM is 79%.

Question: What about the percent of control binding at 10 µM [4, 5] of the same molecule?
Answer: Its percent of control binding at 10 µM is 90%.

Question: With `O=C(c1cc(Cc2n[nH]c(=O)c3ccccc23)ccc1F)N1CCN(C(=O)C2CC2)CC1` [Olaparib] as the molecule, how does the percent of control binding at 10 µM [1, 6] read?
Answer: The percent of control binding at 10 µM was 88%.

Question: And the percent of control binding at 10 µM [2, 6]?
Answer: Its percent of control binding at 10 µM is 100%.

Question: And the percent of control binding at 10 µM [3, 6]?
Answer: The percent of control binding at 10 µM was 98%.

Question: And the percent of control binding at 10 µM [4, 6]?
Answer: The percent of control binding at 10 µM was 100%.

Question: What does the source list for `NC(=O)c1cccc2cn(-c3ccc([C@@H]4CCCNC4)cc3)nc12` [Niraparib]?
Answer: percent of control binding at 10 µM [1, 7]: 88%; percent of control binding at 10 µM [2, 7]: 85%; percent of control binding at 10 µM [3, 7]: 85%; percent of control binding at 10 µM [4, 7]: 89%

Question: Which results are given for `CNCc1ccc(-c2[nH]c3cc(F)cc4c3c2CCNC4=O)cc1` [Rucaparib]?
Answer: percent of control binding at 10 µM [1, 8]: 66%; percent of control binding at 10 µM [2, 8]: 72%; percent of control binding at 10 µM [3, 8]: 65%; percent of control binding at 10 µM [4, 8]: 78%
